Assay results published in patent US10633389B2, “CARM1 inhibitors and uses thereof” (Epizyme, Inc., priority 2013, dated 2020).

Key:
human CARM1 (PRMT4) = human CARM1 (PRMT4) (Homo sapiens (Human), UniProt Q86X55); experiment: CARM1 enzyme assay on peptide substrate (3H-SAM Flashplate); settings: Biochemical potencies, read-out: Biochem IC50
[1] = system: asymmetric di-methyl PABP1 in RKO cells; experiment: RKO methylation assay, In Cell Western (ICW) for asymmetric di-methyl PABP1; format: cell-based; settings: Homo sapiens, RKO, Cellular potencies, ICW PABP1me2a
How it was run: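 In-cell Western on fixed RKO cells after 48 h compound exposure: anti-asymmetric di-methyl PABP1 signal at 800 nm over DRAQ5 DNA signal at 700 nm. Percent inhibition set between DMSO wells and wells with 20 μM reference compound; IC50 curves fitted in triplicate.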

human CARM1 (PRMT4), sequence (Q86X55 other isoform, or with tags, fused parts or gaps isoform Q86X55-1): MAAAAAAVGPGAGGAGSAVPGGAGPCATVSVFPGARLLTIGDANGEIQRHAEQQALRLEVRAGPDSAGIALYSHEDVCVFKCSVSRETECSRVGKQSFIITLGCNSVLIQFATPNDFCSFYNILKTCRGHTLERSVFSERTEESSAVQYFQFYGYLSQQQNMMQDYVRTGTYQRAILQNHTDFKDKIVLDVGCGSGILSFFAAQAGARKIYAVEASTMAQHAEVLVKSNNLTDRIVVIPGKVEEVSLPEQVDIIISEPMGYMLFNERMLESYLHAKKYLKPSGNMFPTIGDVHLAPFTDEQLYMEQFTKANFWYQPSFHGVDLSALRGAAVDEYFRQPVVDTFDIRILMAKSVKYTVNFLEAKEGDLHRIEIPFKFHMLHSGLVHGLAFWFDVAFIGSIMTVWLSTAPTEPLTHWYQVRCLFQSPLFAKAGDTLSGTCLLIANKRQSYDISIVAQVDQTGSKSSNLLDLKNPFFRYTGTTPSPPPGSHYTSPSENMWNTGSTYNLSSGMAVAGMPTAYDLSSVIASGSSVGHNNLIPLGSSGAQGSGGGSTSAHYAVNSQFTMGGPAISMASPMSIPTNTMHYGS

| Structure (SMILES) | IC50 (human CARM1 (PRMT4)) [µM] | IC50 [1] [µM] |
| --- | --- | --- |
| CNCC(O)COc1cccc(-c2nc(Nc3c(C)noc3C)cc(-c3c(C)noc3C)n2)c1 (stereo not drawn) [Example 48-1a] | 1 to 3 | 10 to 20 |
| CNCC(O)COc1cccc(-c2nc(NC3(C)CCOCC3)cc(N3CCOCC3)n2)c1 (stereo not drawn) [Example 684-1a] | 1 to 3 | ≥ 20 |
| CNCC(O)COc1cccc(-c2nc(NCC(F)(F)F)cc(-c3cncnc3)n2)c1 (stereo not drawn) [Example 626-1a] | 1 to 3 | ≥ 20 |
| CNCC(O)COc1cccc(-c2nc(-c3c(C)n[nH]c3C)c(C)c(-c3c(C)noc3C)n2)c1 (stereo not drawn) [Example 26-1a] | 1 to 3 | 10 to 20 |
| CNCC(O)COc1cccc(-c2nc(NCCOC)cc(-c3ccc(OC)c(OC)c3)n2)c1 (stereo not drawn) [Example 630-1a] | 0.1 to 1 | ≥ 20 |
| CNCC(O)COc1cccc(-c2nc(N[C@H]3C[C@@H](C(=O)O)C3)c(C)c(-c3c(C)noc3C)n2)c1 (stereo partly drawn) [Example 223-1a] | 1 to 3 | 10 to 20 |
| CNCC(O)COc1cccc(-c2nc(N[C@@H]3CCOC3)c(C)c(N3CCC[C@@H]3C(=O)NC)n2)c1 (stereo partly drawn) [Example 450-1a] | 0.1 to 1 | 10 to 20 |
| CNCC(O)COc1cc(Cl)cc(-c2nc(N[C@@H]3CCOC3)c(C)c(C(=O)NCC3CCOCC3)n2)c1 (stereo partly drawn) [Example 336-1a] | 0.1 to 1 | 10 to 20 |
| COC(=O)N1CC[C@H](Nc2nc(-c3cc(OC[C@H](O)CN(C)C)ccc3Cl)nc(-c3c(C)noc3C)c2C)C[C@@H]1C [Example 193-3] | 0.1 to 1 | ≥ 20 |
| CNCC(O)COc1cccc(-c2nc(N[C@@H]3CCOC3)c(C)c(N3CCNC(C(F)(F)F)C3)n2)c1 (stereo partly drawn) [Example 428-1a] | 0.1 to 1 | 10 to 20 |
| CNCC(O)COc1cccc(-c2nc(N[C@@H]3CCOC3)c(C)c(N3CCC[C@H]3COC)n2)c1 (stereo partly drawn) [Example 395-1a] | 0.1 to 1 | 10 to 20 |
| CNCC(O)COc1cccc(-c2nc(N[C@@H]3CCOC3)c(C)c(N3CCC(C)(O)CC3)n2)c1 (stereo partly drawn) [Example 385-1a] | 0.1 to 1 | 10 to 20 |
| CNCC(O)COc1ccc(C)c(-c2nc(NC3CCOCC3)c(C)c(-c3c(C)noc3C)n2)c1 (stereo not drawn) [Example 123-3] | 0.1 to 1 | 10 to 20 |
| CNCC(O)COc1cccc(-c2nc(C3CCCC3)cc(C(CCOC)CCOC)n2)c1 (stereo not drawn) [Example 650-1a] | 0.1 to 1 | ≥ 20 |
| CNCC(O)COc1cccc(-c2nc(NC3CCOCC3)c(C)c(N(C3CCOCC3)C3CC3)n2)c1 (stereo not drawn) [Example 607-1a] | 3 to 10 | 10 to 20 |
| CNCC(O)COc1cccc(-c2nc(N[C@@H]3CCOC3)c(C)c(N3CCN(C(C)=O)C4(CC4)C3)n2)c1 (stereo partly drawn) [Example 423-1a] | 0.1 to 1 | 10 to 20 |
| CNCC(O)COc1cccc(-c2nc(N[C@H]3CO[C@H]4OCC[C@H]43)c(C)c(N3CCOCC3)n2)c1 (stereo partly drawn) [Example 374-1a] | 0.1 to 1 | 10 to 20 |
| CNCC(O)COc1cccc(-c2nc(NC3CCOCC3)c(C)c(-c3c(C)noc3C)n2)c1Cl (stereo not drawn) [Example 79-3] | 3 to 10 | ≥ 20 |
| CNCC(O)COc1cccc(-c2nc(-c3c(C)noc3C)c(C)c(-c3c(C)noc3C)n2)c1 (stereo not drawn) [Example 25-1a] | 0.1 to 1 | 10 to 20 |
| CNCC(O)COc1cccc(-c2nc(NC3CCOCC3)c(C)c(N3CCN(S(C)(=O)=O)CC3)n2)c1 (stereo not drawn) [Example 660-1a] | 1 to 3 | ≥ 20 |
| CCCCOc1nc(-c2ccc(F)c(OCC(O)CNC)c2)nc(-c2c(C)noc2C)c1C (stereo not drawn) [Example 50-3] | 0.1 to 1 | ≥ 20 |

The remaining lines, values ahead:

| IC50 (human CARM1 (PRMT4)) [µM] | IC50 [1] [µM] | Structure (SMILES) |
| --- | --- | --- |
| 0.1 to 1 | ≥ 20 | CNCC(O)COc1cccc(-c2nc(-c3cccc4ncccc34)cc(N(CCOC)CCOC)n2)c1 (stereo not drawn) [Example 639-1a] |
| 0.1 to 1 | 10 to 20 | CNCC(O)COc1cccc(-c2nc(N(C)C3CCOCC3)cc(N3CCN(C(C)=O)CC34CC4)n2)c1 (stereo not drawn) [Example 552-1a] |
| 0.1 to 1 | ≥ 20 | CNCC(O)COc1cccc(-c2nc(NC3CCOCC3)cc(-c3cncnc3)n2)c1 (stereo not drawn) [Example 655-1a] |
| 1 to 3 | 10 to 20 | CNCC(O)COc1cccc(-c2nc(N[C@@H]3CCOC3)c(C)c(-c3ccc[nH]c3=O)n2)c1 (stereo partly drawn) [Example 371-1a] |
| 0.1 to 1 | ≥ 20 | CNCC(O)COc1cccc(-c2nc(-c3ccncc3)cc(N(C)C3CCN(C(C)=O)CC3)n2)c1 (stereo not drawn) [Example 671-1a] |
| 0.1 to 1 | 10 to 20 | CNCC(O)COc1cccc(-c2nc(NC3CCOC3)c(C)c(C(=O)NC)n2)c1 (stereo not drawn) [Example 384-1a] |
| 0.1 to 1 | 10 to 20 | CNCC(O)COc1cccc(-c2nc(C(=O)N(C)CC3CCOCC3)cc(N(C)C3CCOCC3)n2)c1 (stereo not drawn) [Example 592-1a] |
| 1 to 3 | ≥ 20 | CNCC(O)COc1cccc(-c2nc(NC3CCOCC3)cc(-c3ccnc(OC)c3)n2)c1 (stereo not drawn) [Example 653-1a] |
| 0.1 to 1 | 10 to 20 | CNCC(O)COc1cccc(-c2nc(N(C)c3cnc(C(F)(F)F)nc3)cc(N(C)C3CCOCC3)n2)c1 (stereo not drawn) [Example 587-1a] |
| 1 to 3 | ≥ 20 | CCNc1nc(-c2cccc(OCC(O)CNC)c2)nc(NC2CCOCC2)c1C (stereo not drawn) [Example 676-1a] |
| 0.1 to 1 | 10 to 20 | CNCC(O)COc1cccc(-c2nc(N(C)c3cnc(C)nc3)cc(N(C)C3CCOCC3)n2)c1 (stereo not drawn) [Example 588-1a] |
| 0.1 to 1 | 10 to 20 | CNCC(O)COc1cccc(-c2nc(N[C@@H]3CCOC3)c(C)c(-c3ccnc(-n4ccnc4)c3)n2)c1 (stereo partly drawn) [Example 405-1a] |
| 0.1 to 1 | 10 to 20 | CNCC(O)COc1cccc(-c2nc(-c3c[nH]cn3)cc(N(C)C3CCOCC3)n2)c1 (stereo not drawn) [Example 589-1a] |
| 1 to 3 | 10 to 20 | CNCC(O)COc1cccc(-c2nc(C(=O)N3CCOCC3)cc(N(C)C3CCOCC3)n2)c1 (stereo not drawn) [Example 604-1a] |
| 0.1 to 1 | 5 to 10 | CNCC(O)COc1cccc(-c2nc(-c3ccnc(C(=O)N(C)C)c3)cc(N(C)C3CCOCC3)n2)c1 (stereo not drawn) [Example 535-1a] |
| 0.1 to 1 | 10 to 20 | CNCC(O)COc1cccc(-c2nc(C(=O)NC3CCOCC3)cc(-c3c(C)noc3C)n2)c1 (stereo not drawn) [Example 52-1a] |
| 0.1 to 1 | ≥ 20 | CNCC(O)COc1cccc(-c2nc(-c3cccc(C#N)c3)cc(N(CCOC)CCOC)n2)c1 (stereo not drawn) [Example 629-1a] |
| 1 to 3 | 10 to 20 | CNCC(O)COc1cccc(-c2nc(C(=O)NC3CCOCC3)c(C)c(-c3c(C)noc3C)n2)c1 (stereo not drawn) [Example 62-1a] |
| 0.1 to 1 | 10 to 20 | CNCC(O)COc1cccc(-c2nc(N[C@H]3CCOC3)c(C)c(-c3ccncc3)n2)c1 (stereo partly drawn) [Example 333-1a] |
| 0.1 to 1 | ≥ 20 | CNCC(O)COc1cccc(-c2nc(NCC3CCNCC3)cc(-c3ccncc3)n2)c1 (stereo not drawn) [Example 662-1a] |
| 0.1 to 1 | 10 to 20 | CNCC(O)COc1cc(-c2nc(N(C)C3CCOCC3)c(C)c(-n3cccn3)n2)cc(-n2cccn2)c1 (stereo not drawn) [Example 598-1a] |
| 0.1 to 1 | 10 to 20 | CNCC(O)COc1cccc(-c2nc(C(=O)NC)cc(N(C)C3CCOCC3)n2)c1 (stereo not drawn) [Example 554-1a] |
| 0.1 to 1 | 10 to 20 | CNCC(O)COc1cccc(-c2nc(N[C@@H]3CCOC3)c(C)c(-c3ccc(=O)[nH]c3)n2)c1 (stereo partly drawn) [Example 409-1a] |
| 0.1 to 1 | ≥ 20 | CNCC(O)COc1cccc(-c2nc(N[C@@H]3CC[C@H](C(=O)NC)C3)c(C)c(N3CCOCC3)n2)c1 (stereo partly drawn) [Example 680-1a] |
